Marks after values point to notes of the source that are not given here.
Legend:
[1] = system: Male cockroaches (Blattela germanica); assay: Y-tube olfactometer bioassay, test compound in mineral oil on filter paper; assay type: in vivo; conditions: 0.5% w/v solution in mineral oil; mean of 3 replicates; 65% or more = significantly attractive (*), 35% or less = significantly repellent (**)
Source text: The German cockroach (Blattela germanica) is one of the most difficult cockroach species to control in homes and was used to illustrate the invention. […] Since the cockroaches never contact the test sample, their response is strictly to the molecules in the air stream.
(§1) Olfactometer Bioassay: The Y-tube bioassay apparatus was similar to that described by Vander Meer et al. (J. Chem. Ecol., 14: 825-838 (1988)). Compressed air (breathing-air quality) was passed into the two choice arms at 0.2 l/min for a total flow of 0.4 l/min. Flow rates were adjusted and controlled by two flow meters (Omega Engineering, Inc.). All tubing carrying the air was either copper or Teflon. Prior to evaluating treatment samples, a positive standard was put through the bioassay procedure. […] Test samples (10.0 μl) and the solvent blank (mineral oil, 10.0 μl) were applied to filter paper strips (0.3×1.0 cm, Whatman No. 1) and then each was placed into one of the two choice arms. Male cockroaches (Blattela germanica) were prepared for their introduction into the olfactometer by placing them in a Teflon tube (3 cm×0.8 cm) that had one end blocked with a piece of copper mesh screen. The open end of tube was closed with a lightly attached piece of tape. The cockroaches were introduced individually by removing the tape and quickly inserting the Teflon tube into the entrance arm of the olfactometer. […] The initial choice of the cockroach was recorded. The cockroach was removed and the process was repeated 10 times with the same test and blank samples. The 10 choices usually required less than 5 minutes to complete. After each set of 10 cockroaches had made their choice, the olfactometer was rinsed with acetone, dried, and reassembled for the next test. Each sample was retested with the same cockroaches, but with the sample and control in reverse positions. The sum of the results from the two tests represented one replicate. This procedure minimized bias inherent in the apparatus. A null hypothesis of equal numbers of cockroaches in each arm was tested with chi-square analysis. […] Results in-between were neutral.
The diameter of the Y part of the olfactometer provided a close fit for the cockroach, thus keeping it in the center of the walkway.

[2] = system: Male cockroaches (Blattela germanica); assay: Y-tube olfactometer bioassay of controlled release pellets aged in a fume hood; assay type: in vivo; conditions: for Percent Response: mean of 3 replicates; for activity in the olfactometer (in words): charcoal as the absorbent, after one hour in the fume hood
Source text: as §1, with “procedure. The standard was initially an attractive food material (grape flavoring concentrate used at 0.33%) and later 0.5% (w/v) methyl tiglate, one of the compounds of the present invention, in white, light mineral oil (Aldrich Chemical Co.).” for “procedure.”
Controlled Release Formulations: Four esters found to be significant cockroach attractants were selected for evaluation in controlled release formulations-developed by BioGuard, Inc. Six controlled release formulations from BioGuard were evaluated in the olfactometer. The attractants were methyl tiglate, butyl hexanoate, propyl propanoate, and butyl heptanoate. The attractants were absorbed to either coconut shell charcoal pellets or potassium substituted crystalline zeolite pellets, and then coated with water soluble methylcellulose. The powdered methyl cellulose was dissolved in 80° C. water until saturation, cooled to approx 25° C., the pellets immersed into the solution for a 30 sec, and removed and rapidly air dried with 30° C. pre-dried air. The end products were pellets (charcoal=2 mm×4 mm dia.; molecular sieve=4 mm×1.5 mm dia.). […] A single pellet was used in place of the filter paper described above. The control side was left blank.

cockroach = assay: Bioassays for cockroach attraction of attractants sorbed into thermoplastic polymers; assay type: in vivo
Source text: To alleviate the reactivity with the carrier polymers, we attempted to load active compounds into a series of thermoplastic polymers including urethanes and synthetic rubbers, based on the behavior of the active compounds as plasticizers. […] Propyl propanoate, methyl hexanoate, and methyl tiglate were loaded into a series of thermoplastic granulated feed materials, including 4-(1,1,3,3-tetramethylbutyl) with ethylene-5-ethylidenebicyclo[2.2.1]hept-2-ene-propene thermoplastic synthetic rubber (Santopren™ 203-40). Santoprene™ is a thermoplastic elastomer (TPE that is a mixture of in-situ cross linking of EPDM rubber and polypropylene compounds). Because of the longer life of Santopren™ in both extreme hot and cold environments, it is often preferred over the use of rubber. Pellethane™ 2102-55D is a polyester polycaprolactone polyurethane. Methyl hexanoate and methyl tiglate were sorbed using heat and pressure (60° C., 40 psi, 30 min) into the Santoprene® and were effective in bioassays for cockroach attraction. […] Loading rates of active compounds into the Santoprene®, using slightly elevated temperature (60° C.) and 40 psi pressure, were 8-12% by wt for the two compounds.

[3] = Release rate of attractants from sustained release delivery systems; assay type: physicochemical
Source text: Several secondary release rate control systems were developed. The first was a sachet that can contain the above polymer releasing system. This sachet can be either polyvinylidine chloride (PvdC) barrier film (e.g., Saranex™) enclosed in a thermally sealed metalized polyethylene container to eliminate release of active compounds, or a metalized polyethylene sachet with a removable seal that covers a vapor diffusion controlling orifice which when removed begins the release process from the internal polymer/carrier, or metalized polyethylene sachet which contains a small vial with a vapor controlling orifice. In the case of the Saranex™ sachet, the actual porosity of the Saranex™ control release is based on type of PVdC and thickness of the film. In the case of the metalized polyethylene sachet and internal polymer/carrier, a specific orifice size controlled the rate of diffusion of the active from the device, as shown in FIG. 4. An additional means of containing and reducing the release of the liquid active compounds and providing a solid support for use in the above delivery system involved sorbing the active compounds into an inert absorbent such as Membrana GmbH's expanded microporous polyolefin Accurel® MP100 which are granular or pelletized polyethylenes that have 10-50 μm air pockets throughout and can contain up to 90% of their volume in active compounds . MP100 was easily loaded with 80% by wt active ingredient due to its porosity. […] Thus, placement into the metalized polyethylene sachet with its diffusion regulating orifice was required.
Active compounds (1 gm active in Accurel® MP100) were sealed within the metalized polyethylene sachet, and a 0.5 mm hole placed into the film, and sealed until use with a metalized tape. Release rates for propyl propanoate, methyl tiglate, and butyl hexanoate were calculated at 15.5, 11.4, and 4.8 mg/day, respectively. Longevity of this system was calculated to be 64, 87, and 208 days, respectively.
Release rates for the thermoset urethane (Flexane® 80P) and synthetic rubbers systems ranged from 0.055 to 0.2 mg/cm^2/day, depending on durometer/hardness that is a measure of polymer crosslinking. Best results were obtained at durometer/hardness levels above D30. Release rates for the Saranex system without the release control provided by the metalized polyethylene and diffusion control orifice were 187, 236, and 7 mg/day for propyl propanoate, methyl tiglate, and butyl hexanoate, respectively.

[4] = system: German roaches (B. germanica); assay: Two-harborage arena bioassay of sustained release polymer formulations; assay type: in vivo; conditions: formulated with Santoprene; counted after 24 hours
Source text: Evaluation of sustained release formulations: Three cockroach attractants (methyl tiglate, butyl heptanoate, and propyl proprionate) were formulated in one or more polymer formulations (Urethane, Pellethane, Santoprene, and/or Polyethylene) as indicated in Table 4.A sweater box (1.5×2.0×0.5 ft) provided the test arena. The sides of the arena were coated with a blend of mineral oil and Vaseline petroleum jelly. The tops of two 8 oz paper ice cream cups were tapped to the arena floor with masking tape and, prior to the addition of the test cockroaches, inverted cups without holes were fixed to the tapped lids. Twenty-five laboratory reared late stage nymphs or adult male German roaches (B. germanica), starved for 72 hrs, were added to the arena and allowed to calm down (ca. 1 hour). The starting inverted ice cream cups were carefully removed and each ice cream cup top was then supplied with a water tube (1.5 ml scintillation vial with water and stoppered with cotton), one lab chew food pellet, and either a test attractant polymer formulation or the corresponding polymer blank control. […] The cups were oriented so that the holes were facing each other. The number of roaches that sought harborage in the cups was counted after 24 hours by plugging the entrance holes with cotton, the roaches inside euthanized, and the numbers in each cup counted.

[5] = Charcoal absorbent, methylcellulose coated pellet, aged 1 hour in fume hood
[6] = charcoal controlled release formulation, aged 24 hours in fume hood
[7] = charcoal controlled release formulation, aged 48 hours in fume hood

| Structure (SMILES) | Percent Response [1] | further results |
| --- | --- | --- |
| CCCCCC(=O)OCC [Ethyl Hexanoate] | 75.0* % | – |
| CCCCCCCCCCCC(=O)OC [Methyl Dodecanoate] | 45.0% | – |
| CCCCOC(=O)CC [Butyl Propanoate] | 15.0** % | – |
| CCCCCCC(=O)OCC [Ethyl Heptanoate] | 40.0% | – |
| CCCCCCOC(=O)CCC [Hexyl Butanoate] | 35.0** % | – |
| CCCOC(=O)CCC [Propyl Butanoate] | 35.0** % | – |
| CCOC(=O)CC [Ethyl Propanoate] | 65.0* % | – |
| CCCCCCCCC(=O)OC [Methyl Nonanoate] | 45.0% | – |
| CCCCCCC(=O)OCCCC [Butyl Heptanoate] | 80.0* % | Percent Response [2, 5]: 70.0%; activity in the olfactometer (in words) [2]: significantly active; Percent Response [2, 6]: 61.6%; Percent Response [2, 7]: 58.3% |
| CCCCC(=O)OCC [Ethyl Pentanoate] | 65.0* % | – |
| CCCCCCCC(=O)OCC [Ethyl Octanoate] | 50.0% | – |
| CCCCCC(=O)OC [Methyl Hexanoate] | 45.0% | effect in bioassays for cockroach attraction (in words) (cockroach; loaded into Dow Pellethane): worked less well; effect in bioassays for cockroach attraction (in words) (cockroach; sorbed into Santoprene (60° C., 40 psi, 30 min)): effective |
| CCC(=O)OC [Methyl Propanoate] | 60.0% | – |
| CCCCC(=O)OC [Methyl Pentanoate] | 50.0% | – |
| CCCCCC(=O)OCCCC [Butyl Hexanoate] | 75.0* % | Percent Response [2, 5]: 82.0%; activity in the olfactometer (in words) [2]: significantly active; Percent Response [2, 6]: 70.0%; Percent Response [2, 7]: 61.6%; Longevity of the release system ([3]; 1 gm active in Accurel MP100 in metalized polyethylene sachet with 0.5 mm hole): 208 days; Release rate ([3]; 1 gm active in Accurel MP100 in metalized polyethylene sachet with 0.5 mm hole, FIG. 3): 4.8 mg/day; Release rate ([3]; Saranex system without metalized polyethylene and diffusion control orifice): 7 mg/day; attraction to treatment harborage versus polymer blank control (in words) [4]: significant attraction and subsequent aggregation |
| CCCCOC(C)=O [Butyl Acetate] | 45.0% | – |
| CCCCCCCCCC(=O)OC [Methyl Decanoate] | 55.0% | – |
| CCCCCCCCCCC(=O)OC [Methyl Undecanoate] | 45.0% | – |
| CCCCOC(=O)CCCC [Butyl Pentanoate] | 50.0% | – |
| CCCCCCCCC(=O)OCCCC [Butyl Nonanoate] | 40.0% | – |
| CCCC(=O)OCC [Ethyl Butyrate] | 63.3% | – |
| CCCC(=O)OC [Methyl Butanoate] | 55.0% | – |
| CCCOC(C)=O [Propyl acetate] | 40.0% | – |
| CCCCCCCC(=O)OCCCC [Butyl Octanoate] | 55.0% | – |
| CCCCCCC(=O)OC [Methyl Heptanoate] | 50.0% | – |
| CCCCOC(=O)CCC [Butyl Butanoate] | 35.0** % | – |
